Data reported in patent publication US20190111111A1, “Treatment of Cerebral Cavernous Malformations” (The Regents of the University of California, priority 2016, published 2019).
Entries after “also recorded” stand apart in the source; their conditions may differ.

Experiments:
[1] = test system: Krit1^ECKO BMEC; assay: ZO-1 tight junction staining in BMEC after Krit1 inactivation (immunofluorescence); assay type: cell-based, mouse
Method: (§1) BMEC at passages 1-3 were maintained at 37° C. in 95% air and 5% CO2 and were grown to 85% confluence and treated for 48 h with 5 μM 4-hydroxy-tamoxifen (Sigma, H7904) after which the medium was replaced with medium lacking 4-hydroxy-tamoxifen and cells were harvested after 72 hr in culture. For TSP1 and 3TSR addition experiments, after 24 h in regular medium, the 5 nM mrTSP1 (R&D systems, 7859-TH), 20 nM 3TSR, or vehicle were added. After 48 hr a second dose of TSP1, 3TSR, or vehicle were added and cells were harvested after an additional 24 h (FIG. 11a-11d).
BMEC were grown to confluence on collagen coated cover glass (Fisher Scientific, 12-545-81) and cells were fixed for 10 min at room temperature with 4% paraformaldehyde (PFA) in phosphate-buffered saline (PBS; pH 7.4) and then permeabilized with 0.5% Triton X-100 in PBS for 5 min. […]
The slides were viewed with a high-resolution SP5 confocal microscope (Leica Microsystems) and the images were captured with Leica application suite (LAS) software (Leica Microsystems). […] The quantification analysis was performed using Volocity® software on high-resolution confocal images.

[2] = test system: Krit1^ECKO BMEC; assay: KLF2 and KLF4 mRNA in Krit1^ECKO BMEC (RT-qPCR); assay type: cell-based, mouse; conditions: in vitro, FIG. 5d
Method: as §1
Primary BMEC, human umbilical vein endothelial cells (HUVEC) and freshly isolated brain microvasculature total RNA were isolated using Trizol reagent, according to the manufacturer's protocol (ThermoFisher). For gene expression analysis, single stranded cDNA was produced from 10 ng of total RNA of BMEC using SuperScript III First-Strand synthesis and random primers according to the manufacture's protocol (ThermoFisher). KAPPA SyberFast qPCR kit (Kapa Biosystems) and thermal cycler (CFX96 Real-Time System, Bio-Rad) were used to determine the relative levels of the genes analyzed (primer sequences not shown) according to the manufacturer's protocol. Actin mRNA levels were used as an internal control and the 2^−ΔΔCT method was used for analysis of the data. […]

Molecule	ZO1 junctional staining following Krit1 inactivation ([1]; 2 μM SU5416, Krit1^ECKO BMEC, FIG. 13c)	rise in KLF2 or KLF4 mRNA following Krit1 inactivation [2]	ZO-1 at BMEC tight junctions following Krit1 inactivation ([1]; 5 nM mouse recombinant TSP1, Krit1^ECKO BMEC, FIG. 3a)
Cc1cc(C)c(/C=C2\C(=O)Nc3ccccc32)[nH]1 [SU5416, reference compound]	continuous ZO1 junctional staining	–	–
TSP1: mouse recombinant full length thrombospondin 1 (R&D systems, 7859-TH), a large (~450 kDa) glycoprotein	–	Neither TSP1 nor 3TSR prevented	continuous ZO1 junctional staining; also recorded: prevented the loss of ZO-1 from BMEC tight junctions
